This passage reports IC50 results from US12617772B2, “Hydroxypyridine HSD17B13 inhibitors and uses thereof” (INIPHARM, INC., priority 2021, dated 2026).

Structures are written as SMILES.

The target in the assay is T1, HSD17B13 (Homo sapiens, UniProt Q7Z5P4).
T1 construct: His; made in house; host or cells: E. coli
T1 sequence (Q7Z5P4 20-300): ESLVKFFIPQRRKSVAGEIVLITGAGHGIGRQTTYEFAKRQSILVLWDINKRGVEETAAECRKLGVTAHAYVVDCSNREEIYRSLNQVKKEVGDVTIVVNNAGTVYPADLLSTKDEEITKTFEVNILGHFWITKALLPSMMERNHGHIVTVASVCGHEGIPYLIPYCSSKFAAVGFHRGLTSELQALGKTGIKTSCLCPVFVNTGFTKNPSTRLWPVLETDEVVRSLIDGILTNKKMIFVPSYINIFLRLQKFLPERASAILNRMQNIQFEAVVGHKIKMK
Briefly: LC/MS estrone detection assay: conversion of estradiol to estrone by HSD17B13. Particulars: 4 μM estradiol, 6 mM NAD, 30 nM HSD17B13 enzyme (E. coli expressed His-tagged), 2 hours at 26.5° C. It counts as biochemical. The protocol:
Example A: Estrone Detection Assay for Evaluation of HSD17ß13 Activity and Identification of Inhibitors
The liquid chromatography/mass spectrometry (LC/MS) estrone detection assay monitors the conversion of estradiol to estrone by HSD17B13. This assay was undertaken in a 96 wp format (Eppendorf deep well Plate 96/500) in an 80 μl reaction volume containing: 4 μM of Estradiol (E2; Cayman; #10006315), 6 mM NAD (Sigma; #N0623) and 30 nM HSD17B13 enzyme (in-house; E. coli expressed His-tagged, purified, soluble protein) in a reaction containing […] potassium phosphate buffer pH 7.4, with 0.5% vehicle (DMSO). Reactions were incubated for 2 hours at 26.5° C., and estradiol (E2) conversion to estrone (E1) was quantitated by LC-MS/MS based analyte detection for both E2 and E1 using LCMS grade reagents.
Reactions were terminated by the addition of two volumes of acetonitrile (MeCN: LCMS grade; CAS #75/05/8) containing deuterated (D4)-E1 used as internal standard (Clear Synth: #CS-T-54273; 500 ng/ml final concentration). Samples were applied to pre-prepared Bond Elut-C18 extraction cartridges (3 mL; Agilent; #12102028), washed and eluted in MeCN. Eluates were dried under nitrogen and re-suspended in 60% methanol (LCMS grade methanol; CAS #67/56/1) before submission for analysis. Aqueous linearity for E2 and E1 were included for quantification.
Analysis of samples was undertaken on a XBridge BEH C18 column (Waters; #186003033) using 0.1% Diethyl Amine in MeCN (mobile phase A; DEA CAS #109-89-7) and 0.1% Diethyl Amine in milli-Q water (mobile phase B) in a 3 min gradient allowing 25% B. Analytes were detected in negative mode using MRM analysis, with E2 having a RT of 1.85 min and E1 having a RT of 2 min. Activity of the enzyme, in the absence of NAD^+, was used to evaluate specificity of conversion. Enzyme activity in the presence of test samples was expressed as a percentage of the uninhibited enzyme activity, and plotted versus inhibitor concentration. Non-linear regression was performed using a four-parameter logistic model and GraphPad Prism software (GraphPad Software, La Jolla, CA). All assessments were undertaken in duplicate evaluations and pooled during extraction process and subsequently injected as duplicates for LC-MS/MS analysis.
With `O=C(Nc1cccc2ncn(CCc3ccccc3OC(F)(F)F)c(=O)c12)c1ccc(O)c(C(F)(F)F)n1` [Example 1, 5-hydroxy-N-(4-oxo-3-(2-(trifluoromethoxy)phenethyl)-3,4-dihydroquinazolin-5-yl)-6-(trifluoromethyl)picolinamide], the IC50 (in general, the midpoint of a concentration-inhibition curve) was not above 0.1 µM.
Then `CC(C)(C)CCNC(=O)c1sccc1NC(=O)c1ccc(O)c(C(F)(F)F)n1` [Example 5, N-(2-((3,3-dimethylbutyl)carbamoyl)thiophen-3-y1)-5-hydroxy-6-(trifluoromethyl) picolinamide], with not above 0.1 µM; and `O=C(Nc1cccc2ncn(Cc3ccccc3OC(F)(F)F)c(=O)c12)c1ccc(O)c(C(F)(F)F)n1` [Example 3, 5-hydroxy-N-(4-oxo-3-{[2-(trifluoromethoxy)phenyl]methyl}-3,4-dihydroquinazolin-5-yl)-6-(trifluoromethyl) pyridine-2-carboxamide], with not above 0.1 µM; and `O=C(Nc1cc(Cl)sc1C(=O)NCCc1ccccc1OC(F)(F)F)c1ccc(O)c(C(F)(F)F)n1` [Example 7, N-(5-chloro-2-((2-(trifluoromethoxy)phenethyl)carbamoyl)thiophen-3-y1)-5-hydroxy-6-(trifluoromethyl)picolinamide], with 0.1 to 0.5 µM.
Consider `O=C(Nc1cccc2ncn(CCc3ccccc3C(F)(F)F)c(=O)c12)c1ccc(O)c(C(F)(F)F)n1` [Example 2, 5-hydroxy-N-(4-oxo-3-(2-(trifluoromethyl)phenethyl)-3,4-dihydroquinazolin-5-y1)-6-(trifluoromethyl)picolinamide], for which the concentration for half-maximal inhibition (IC50) lay within 0.1 to 0.5 µM.
The compound `COc1ccccc1CCn1cnc2cccc(NC(=O)c3ccc(O)c(C(F)(F)F)n3)c2c1=O` [Example 6, 5-hydroxy-N-(3-(2-methoxyphenethyl)-4-oxo-3,4-dihydroquinazolin-5-yl)-6-(trifluoromethyl) picolinamide] displayed an IC50 not above 0.1 µM.
